Measured values as given in patent publication US10315992B2, “Tetracyline compounds” (Tetraphase Pharmaceuticals, Inc., priority 2012, dated 2019).
Values after ≈ are worked out from the molar mass of the structure shown. Like-named read-outs stand apart in the source and are kept apart here.

Test system: Burkholderia cenocepacia BC240 (cystic fibrosis isolate, MDR)
Test: MIC assay, BC240
Format: cell-based
Settings: for MIC BC 240: B. cenocepacia MDR; for MIC: Burkholderia cenocepacia

Row | Compound | MIC BC 240 (Table 5) [µg/mL] | MIC BC 240 (Table 7) [µg/mL] | MIC [µg/mL] | MIC (read-out: MIC BC 240) [µg/mL]
1 | CN(C)c1cc(NC(=O)CNC(C)(C)C)c(O)c2c1C[C@H]1C[C@H]3[C@H](N(C)C)C(O)=C(C(N)=O)C(=O)[C@@]3(O)C(O)=C1C2=O [Tigecycline, tigecycline] | 16 (≈ 27.3 µM) | 16 (≈ 27.3 µM) | 16 (≈ 27.3 µM) | 16 (≈ 27.3 µM)
2 | CN(C)[C@@H]1C(O)=C(C(N)=O)C(=O)[C@@]2(O)C(O)=C3C(=O)c4c(O)cccc4C[C@H]3C[C@@H]12 [Sancycline, sancycline] | 4 (≈ 9.65 µM) | 4 (≈ 9.65 µM) | 4 (≈ 9.65 µM) | 4 (≈ 9.65 µM)
